Where two headings read alike, the source gives them in different places.
Tests used:
[1] = comparative data, stated as obtained according to the same procedure; footnotes cite New J. Chem. 2019 and GFP congress 2022; cited from earlier work
[2] = in water at pH 7, estimated; cited from earlier work
[3] = Fluorescence titration with chlordecone, binding constant calculated with Bindfit; conditions: compounds of the invention; DMSO+2% H2O, 25 °C, host 5.0 µM or 0.5 µM, chlordecone 5.0 mM additions
Description: A solution of each hemicryptophane (2.5 mL, 5.0 µM for hosts 9 and 5 and 0.5 µM for host 8) in DMSO+2% H2O was transferred into the quartz cuvette. Successive additions of a concentrated chlordecone solution (5.0 mM in the same solvent mixture) were performed. The final volume of the solution was almost unchanged (2.5 mL) since very small volumes of chlordecone solution were added. The solutions were mixed and incubated for 30 s before irradiation at their maximum of excitation (274 nm, 297 nm and 349 nm for hosts 9, 5, 8 respectively) at 25 °C. The corresponding emission values during titration were then recorded. Fluorescence emission spectra are reproduced at Figures 1A (5), 1B (8), and 1C (9) and the relative fluorescence intensities as a function of the [chlordecone]/[hemicryptophane] are reproduced at Figures 2A (5), 2B (8), and 2C (9).
Binding constant (Ka) were calculated using Bindfit program and results are reproduced at Table 1 below, further including comparative data obtained according to the same procedure.

| Compound | Binding constant (Ka) [1] | also measured |
| --- | --- | --- |
| COc1cc2c3cc1OCCOc1ccc(cc1)CNC(=O)CN1CC(=O)NCc4ccc(cc4)OCCOc4cc(c(cc4OC)C3)Cc3cc(OC)c(cc3C2)OCCOc2ccc(cc2)CNC(=O)C1 | [drawing 21] Ka = 126 L/mol ± 3.7% | – |
| COc1cc2c3cc1OCCOc1ccc(cc1)CNCCN1CCNCc4ccc(cc4)OCCOc4cc(c(cc4OC)C3)Cc3cc(OC)c(cc3C2)OCCOc2ccc(cc2)CNCC1 | [drawing 22] Ka = 2.1 x 10^4 L/mol ± 3.4% | – |
| COc1cc2c3cc1OCCOc1ccc4cc(ccc4c1)CNCCN1CCNCc4ccc5cc(ccc5c4)OCCOc4cc(c(cc4OC)C3)Cc3cc(OC)c(cc3C2)OCCOc2ccc3cc(ccc3c2)CNCC1 | [drawing 23] Ka = 6.4 x 10^3 L/mol ± 4.4% | – |
| C(#Cc1cc2c3cc1OCCOc1ccc(cc1)CNCCN1CCNCc4ccc(cc4)OCCOc4cc(c(cc4C#Cc4ccccc4)C3)Cc3cc(C#Cc4ccccc4)c(cc3C2)OCCOc2ccc(cc2)CNCC1)c1ccccc1 | [drawing 25] Ka = 1.4 x 10^5 L/mol ± 12% | – |
| COc1cc2c3cc1OCCOc1ccc(cc1-c1ccccc1)CNCCN1CCNCc4ccc(c(-c5ccccc5)c4)OCCOc4cc(c(cc4OC)C3)Cc3cc(OC)c(cc3C2)OCCOc2ccc(cc2-c2ccccc2)CNCC1 | [drawing 26] Ka = 1.9 x 10^4 L/mol ± 75% | – |
| COc1cc2c3cc1OCCOc1ccc(cc1)CN(S(=O)(=O)c1cccc4c(N(C)C)cccc14)CCN1CCN(S(=O)(=O)c4cccc5c(N(C)C)cccc45)Cc4ccc(cc4)OCCOc4cc(c(cc4OC)C3)Cc3cc(OC)c(cc3C2)OCCOc2ccc(cc2)CN(S(=O)(=O)c2cccc3c(N(C)C)cccc23)CC1 | [drawing 27] Ka = 3.0 x 10^3 L/mol ± 6.9% | – |
| O=C1C2(Cl)C3(Cl)C4(Cl)C(Cl)(Cl)C5(Cl)C3(Cl)C1(Cl)C5(Cl)C24Cl (centres unmarked) [Chlordecone] | – | solubility [2]: around 2 mg/L |
| COc1cc2c3cc1OCCNCc1cc(-c4ccccc4)ccc1OCc1cc4cc(c1)COc1ccc(-c5ccccc5)cc1CNCCOc1cc(c(cc1OC)Cc1cc(c(OC)cc1C3)OCCNCc1cc(-c3ccccc3)ccc1OC4)C2 [compound 9] | – | Binding constant (Ka) [3]: [drawing 20] Ka = 4.6 x 10^5 L/mol ± 17% |
